The source of these data is ChEMBL document CHEMBL5104192, “Late-Stage Functionalization with Cysteine Staples Generates Potent and Selective Melanocortin Receptor-1 Agonists” (J Med Chem, 2022).

For assay [1], the target named is T1, Melanocyte-stimulating hormone receptor (Homo sapiens, UniProt Q01726). Nature of the assay: Displacement of [125I]-NDP-alpha-MSH from human MC1R expressed in HEK2936E cell membrane measured after 16 to 23 hrs by 1450 microbeta trilux scintillation proximity assay. The class given is cell membranes. (In a radioligand displacement assay an active substance lowers the binding of a labelled ligand.)

For assay [2], the target named is T2, Melanocortin receptor 3 (Homo sapiens, UniProt P41968). Briefly: Displacement of [125I]-NDP-alpha-MSH from human MC3R expressed in HEK2936E cell membrane measured after 16 to 23 hrs by 1450 microbeta trilux scintillation proximity assay. It counts as cell membranes.
The target of assay [3] is T3, Melanocortin receptor 4 (Homo sapiens, UniProt P32245). Briefly: Displacement of [125I]-NDP-alpha-MSH from human MC4R expressed in HEK2936E cell membrane measured after 16 to 23 hrs by 1450 microbeta trilux scintillation proximity assay. The class given is cell membranes.
For assay [4], the species on record is Homo sapiens. Nature of the assay: Selectivity ratio of Ki for human MC3R to Ki for human MC1R.
The species entered for assay [5] is Homo sapiens. Nature of the assay: Selectivity ratio of Ki for human MC4R to Ki for human MC1R.
For assay [6], the target named is T1, Melanocyte-stimulating hormone receptor. Briefly: Agonist activity at human MC1R expressed in HEK2936E cells assessed as cAMP production in presence of IBMX by time resolved fluorescence assay. The class given is functional, cell-based. Conditions: read-out: pEC50 (converted).
The target of assay [7] is T2, Melanocortin receptor 3. Briefly: Agonist activity at human MC3R expressed in HEK2936E cells assessed as cAMP production in presence of IBMX by time resolved fluorescence assay. It counts as functional, cell-based. In general terms: Cyclic AMP is a second messenger, typically raised through Gs and lowered through Gi signalling.
Assay [8] deals with T3, Melanocortin receptor 4. Nature of the assay: Agonist activity at human MC4R expressed in HEK2936E cells assessed as cAMP production in presence of IBMX by time resolved fluorescence assay. It counts as functional, cell-based.
The species entered for assay [9] is Homo sapiens. Nature of the assay: Selectivity ratio of EC50 for human MC3R to EC50 for human MC1R.
Assay [10] is filed under the species Homo sapiens. Briefly: Selectivity ratio of EC50 for human MC4R to EC50 for human MC1R.

*1 amine or outer side, *2 acyl side, *3 side chain or, on linkers, in order; H or OH if unused. Where a SMILES comes first, the peptide text is derived from it. Bridges are numbered along the chain shown (N, C = ends). [ ]: non-standard residue; d: D form. X9 = O=C(NCCOCCOCCOCCNC(=O)OCC1C2CCc3nnn(CC(=O)N4CCCC[C@H]4C4(O)CN(C(=O)c5ccc(F)c(F)c5Nc5ccc(I)cc5F)C4)c3CCC21)OCC1C2CCc3c([*:1])nnc([*:2])c3CCC21; X8 = NCCNC(=O)OCC1C2CCc3c([*:1])nnc([*:2])c3CCC21; mXylylene = c1cc(C[*:1])cc(C[*:2])c1; oXylylene = c1ccc(C[*:2])c(C[*:1])c1; pXylylene = c1cc(C[*:2])ccc1C[*:1]; Nle = CCCC[C@H](N)C(=O)O Bounds are passed on as bounds.

T1 sequence (Q01726 whole entry): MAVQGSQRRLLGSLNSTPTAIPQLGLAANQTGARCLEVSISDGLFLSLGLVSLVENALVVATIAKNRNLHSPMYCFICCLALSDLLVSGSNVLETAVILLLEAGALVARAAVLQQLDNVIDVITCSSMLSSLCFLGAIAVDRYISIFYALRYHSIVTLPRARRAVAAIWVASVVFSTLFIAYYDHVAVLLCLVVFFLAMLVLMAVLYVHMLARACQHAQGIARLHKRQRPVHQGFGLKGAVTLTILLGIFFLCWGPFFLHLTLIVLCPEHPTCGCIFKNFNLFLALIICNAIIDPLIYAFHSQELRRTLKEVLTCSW
T2 sequence (P41968 whole entry): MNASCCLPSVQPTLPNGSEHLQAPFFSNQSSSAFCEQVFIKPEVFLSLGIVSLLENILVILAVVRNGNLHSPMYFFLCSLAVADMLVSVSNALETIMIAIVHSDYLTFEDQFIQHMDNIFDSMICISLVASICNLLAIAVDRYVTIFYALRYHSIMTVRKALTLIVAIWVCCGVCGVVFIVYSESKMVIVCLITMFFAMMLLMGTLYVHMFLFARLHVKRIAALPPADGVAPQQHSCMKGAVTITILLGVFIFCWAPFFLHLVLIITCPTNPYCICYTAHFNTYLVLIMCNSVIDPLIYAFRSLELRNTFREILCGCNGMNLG
T3 sequence (P32245 whole entry): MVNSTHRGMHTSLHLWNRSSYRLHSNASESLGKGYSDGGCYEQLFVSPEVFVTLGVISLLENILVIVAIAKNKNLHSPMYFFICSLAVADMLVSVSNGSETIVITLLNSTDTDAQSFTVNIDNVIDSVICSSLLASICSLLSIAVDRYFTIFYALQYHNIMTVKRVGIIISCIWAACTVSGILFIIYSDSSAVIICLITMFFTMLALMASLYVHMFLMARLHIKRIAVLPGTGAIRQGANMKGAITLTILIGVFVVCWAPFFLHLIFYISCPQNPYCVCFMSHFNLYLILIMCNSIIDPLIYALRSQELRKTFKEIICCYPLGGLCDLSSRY

For `CCCC[C@@H]1NC(=O)[C@@H]2CSc3nnc(c4c3CCC3C(CC4)C3COC(=O)NCCOCCOCCNC(=O)CCOCCOCCOCCOCCOCCC(=O)NCCOCCOCCNC(=O)OCC3C4CCc5c6nnc(c5CCC43)SC[C@@H]3NC(=O)[C@H](CCCNC(=N)N)NC(=O)[C@H](CC(=O)O)NC(=O)[C@H](Cc4c[nH]c5ccccc45)NC(=O)[C@H](CCCNC(=N)N)NC(=O)[C@H](Cc4ccccc4)NC(=O)[C@H](Cc4cnc[nH]4)NC(=O)CNC(=O)[C@H](CCCC)NC(=O)[C@H](CS6)NC(=O)[C@H](CCCNC(=N)N)NC(=O)[C@H](Cc4c[nH]c5ccccc45)NC(=O)[C@H](CCCNC(=N)N)NC(=O)[C@H](Cc4ccccc4)NC(=O)[C@H](Cc4cnc[nH]4)NC3=O)SC[C@H](NC(=O)[C@H](CCCNC(=N)N)NC(=O)[C@H](CC(=O)O)NC(=O)[C@H](Cc3c[nH]c4ccccc34)NC(=O)[C@H](CCCNC(=N)N)NC(=O)[C@H](Cc3ccccc3)NC(=O)[C@H](Cc3cnc[nH]3)NC(=O)CNC1=O)C(=O)N[C@@H](Cc1cnc[nH]1)C(=O)N[C@@H](Cc1ccccc1)C(=O)N[C@@H](CCCNC(=N)N)C(=O)N[C@@H](Cc1c[nH]c3ccccc13)C(=O)N[C@@H](CCCNC(=N)N)C(=O)N2` (some centres not stated), the results for the Ki in [1], in assay [2] and in assay [3] were 0.417 nM, 10.2 nM and 33.1 nM, respectively. Besides, the Ratio Ki in assay [4] was 25; in [5], 79.

For the molecule `CCCC[C@@H]1NC(=O)[C@@H]2CSc3nnc(c4c3CCC3C(CC4)C3COC(=O)NCCNC(=O)CCOCCOCCOCCOCCOCCC(=O)NCCNC(=O)OCC3C4CCc5c6nnc(c5CCC43)SC[C@@H]3NC(=O)[C@H](CCCNC(=N)N)NC(=O)[C@H](CC(=O)O)NC(=O)[C@H](Cc4c[nH]c5ccccc45)NC(=O)[C@H](CCCNC(=N)N)NC(=O)[C@H](Cc4ccccc4)NC(=O)[C@H](Cc4cnc[nH]4)NC(=O)CNC(=O)[C@H](CCCC)NC(=O)[C@H](CS6)NC(=O)[C@H](CCCNC(=N)N)NC(=O)[C@H](Cc4c[nH]c5ccccc45)NC(=O)[C@H](CCCNC(=N)N)NC(=O)[C@H](Cc4ccccc4)NC(=O)[C@H](Cc4cnc[nH]4)NC3=O)SC[C@H](NC(=O)[C@H](CCCNC(=N)N)NC(=O)[C@H](CC(=O)O)NC(=O)[C@H](Cc3c[nH]c4ccccc34)NC(=O)[C@H](CCCNC(=N)N)NC(=O)[C@H](Cc3ccccc3)NC(=O)[C@H](Cc3cnc[nH]3)NC(=O)CNC1=O)C(=O)N[C@@H](Cc1cnc[nH]1)C(=O)N[C@@H](Cc1ccccc1)C(=O)N[C@@H](CCCNC(=N)N)C(=O)N[C@@H](Cc1c[nH]c3ccccc13)C(=O)N[C@@H](CCCNC(=N)N)C(=O)N2` (some centres not stated), the Ki in assay [1] was 0.661 nM; in assay [2] it was 11.5 nM; in [3], 30.9 nM. Further, the Ratio Ki in [4] was determined as 17; in [5], 47.

For `CCCC[C@@H]1NC(=O)[C@@H]2CSC/C(=N/OCC(=O)NCCOCCOCCOCCN=[N+]=[N-])CSC[C@H](NC(=O)[C@H](CCCNC(=N)N)NC(=O)[C@H](CC(=O)O)NC(=O)[C@H](Cc3c[nH]c4ccccc34)NC(=O)[C@H](CCCNC(=N)N)NC(=O)[C@H](Cc3ccccc3)NC(=O)[C@H](Cc3cnc[nH]3)NC(=O)CNC1=O)C(=O)N[C@@H](Cc1cnc[nH]1)C(=O)N[C@@H](Cc1ccccc1)C(=O)N[C@@H](CCCNC(=N)N)C(=O)N[C@@H](Cc1c[nH]c3ccccc13)C(=O)N[C@@H](CCCNC(=N)N)C(=O)N2`, the Ki in assay [1] was 0.389 nM; in assay [2] it was 5.5 nM; in assay [3], 30.9 nM. For the same molecule, the EC50 in assay [6] is 0.0468 nM; in assay [7], 0.105 nM; in [8] it was 3.02 nM. Also, the Ratio Ki came to 14 in assay [4] and 79 in assay [5]. Further, the Ratio EC50 in [9] amounted to 2; in assay [10], 65.

On to `CCCC[C@@H]1NC(=O)[C@@H]2CSc3nnc(c4c3CCC3C(CC4)C3COC(=O)NCCOCCOCCOCCNC(=O)OCC3C4CCc5c6nnc(c5CCC43)SC[C@@H]3NC(=O)[C@H](CCCNC(=N)N)NC(=O)[C@H](CC(=O)O)NC(=O)[C@H](Cc4c[nH]c5ccccc45)NC(=O)[C@H](CCCNC(=N)N)NC(=O)[C@H](Cc4ccccc4)NC(=O)[C@H](Cc4cnc[nH]4)NC(=O)CNC(=O)[C@H](CCCC)NC(=O)[C@H](CS6)NC(=O)[C@H](CCCNC(=N)N)NC(=O)[C@H](Cc4c[nH]c5ccccc45)NC(=O)[C@H](CCCNC(=N)N)NC(=O)[C@H](Cc4ccccc4)NC(=O)[C@H](Cc4cnc[nH]4)NC3=O)SC[C@H](NC(=O)[C@H](CCCNC(=N)N)NC(=O)[C@H](CC(=O)O)NC(=O)[C@H](Cc3c[nH]c4ccccc34)NC(=O)[C@H](CCCNC(=N)N)NC(=O)[C@H](Cc3ccccc3)NC(=O)[C@H](Cc3cnc[nH]3)NC(=O)CNC1=O)C(=O)N[C@@H](Cc1cnc[nH]1)C(=O)N[C@@H](Cc1ccccc1)C(=O)N[C@@H](CCCNC(=N)N)C(=O)N[C@@H](Cc1c[nH]c3ccccc13)C(=O)N[C@@H](CCCNC(=N)N)C(=O)N2` (some centres not stated), for which the inhibition constant Ki in assay [1] was 2.24 nM; in assay [2], 37.2 nM; in [3], 91.2 nM. Besides, the Ratio Ki in assay [4] is 17; in assay [5], 41.

In the case of `CCCC[C@@H]1NC(=O)[C@@H]2CSc3nnc(c4c3CCC3C(CC4)C3COC(=O)NCCN)SC[C@H](NC(=O)[C@H](CCCNC(=N)N)NC(=O)[C@H](CC(=O)O)NC(=O)[C@H](Cc3c[nH]c4ccccc34)NC(=O)[C@H](CCCNC(=N)N)NC(=O)[C@H](Cc3ccccc3)NC(=O)[C@H](Cc3cnc[nH]3)NC(=O)CNC1=O)C(=O)N[C@@H](Cc1cnc[nH]1)C(=O)N[C@@H](Cc1ccccc1)C(=O)N[C@@H](CCCNC(=N)N)C(=O)N[C@@H](Cc1c[nH]c3ccccc13)C(=O)N[C@@H](CCCNC(=N)N)C(=O)N2` (some centres not stated) (cyclo(CHFRWRC[Nle]GHFRWDR); linker 1-7 via X8), the inhibition constant Ki in [1] was < 0.0055 nM; in assay [2], 0.631 nM; in [3], 0.912 nM. Moreover, the Ratio Ki was found to be 115 in assay [4] and 166 in assay [5].

Consider `CCCC[C@@H]1NC(=O)[C@@H]2CSc3nnc(c4c3CCC3C(CC4)C3COC(=O)NCCOCCOCCOCCNC(=O)OCC3C4CCc5nnn(CC(=O)N6CCCC[C@H]6C6(O)CN(C(=O)c7ccc(F)c(F)c7Nc7ccc(I)cc7F)C6)c5CCC43)SC[C@H](NC(=O)[C@H](CCCNC(=N)N)NC(=O)[C@H](CC(=O)O)NC(=O)[C@H](Cc3c[nH]c4ccccc34)NC(=O)[C@H](CCCNC(=N)N)NC(=O)[C@H](Cc3ccccc3)NC(=O)[C@H](Cc3cnc[nH]3)NC(=O)CNC1=O)C(=O)N[C@@H](Cc1cnc[nH]1)C(=O)N[C@@H](Cc1ccccc1)C(=O)N[C@@H](CCCNC(=N)N)C(=O)N[C@@H](Cc1c[nH]c3ccccc13)C(=O)N[C@@H](CCCNC(=N)N)C(=O)N2` (some centres not stated) (cyclo(CHFRWRC[Nle]GHFRWDR); linker 1-7 via X9), for which the Ki was 2.14 nM in [1], 51.3 nM in assay [2] and 170 nM in assay [3]. Also, the Ratio Ki in assay [4] was found to be 24; in [5], 79.

In the case of `CCCC[C@@H]1NC(=O)[C@@H]2CSCc3cccc(c3)CSC[C@H](NC(=O)[C@H](CCCNC(=N)N)NC(=O)[C@H](CC(=O)O)NC(=O)[C@H](Cc3c[nH]c4ccccc34)NC(=O)[C@H](CCCNC(=N)N)NC(=O)[C@H](Cc3ccccc3)NC(=O)[C@H](Cc3cnc[nH]3)NC(=O)CNC1=O)C(=O)N[C@@H](Cc1cnc[nH]1)C(=O)N[C@@H](Cc1ccccc1)C(=O)N[C@@H](CCCNC(=N)N)C(=O)N[C@@H](Cc1c[nH]c3ccccc13)C(=O)N[C@@H](CCCNC(=N)N)C(=O)N2` (cyclo(CHFRWRC[Nle]GHFRWDR); linker 1-7 via mXylylene), the figures for the Ki in assay [1] and in [2] were 0.407 nM and 13.5 nM, respectively. The values for the EC50 in assay [6] and in assay [7] were 0.0871 nM and 0.309 nM, respectively.

Regarding `CCCC[C@@H]1NC(=O)[C@@H]2CSCc3ccccc3CSC[C@H](NC(=O)[C@H](CCCNC(=N)N)NC(=O)[C@H](CC(=O)O)NC(=O)[C@H](Cc3c[nH]c4ccccc34)NC(=O)[C@H](CCCNC(=N)N)NC(=O)[C@H](Cc3ccccc3)NC(=O)[C@H](Cc3cnc[nH]3)NC(=O)CNC1=O)C(=O)N[C@@H](Cc1cnc[nH]1)C(=O)N[C@@H](Cc1ccccc1)C(=O)N[C@@H](CCCNC(=N)N)C(=O)N[C@@H](Cc1c[nH]c3ccccc13)C(=O)N[C@@H](CCCNC(=N)N)C(=O)N2` (cyclo(CHFRWRC[Nle]GHFRWDR); linker 1-7 via oXylylene), the results for the Ki in [1] and in assay [2] were 1.58 nM and 26.3 nM, respectively. For the same molecule, the EC50 is 0.195 nM in [6] and 0.347 nM in assay [7].

`CCCC[C@@H]1NC(=O)[C@@H]2CSCc3ccc(cc3)CSC[C@H](NC(=O)[C@H](CCCNC(=N)N)NC(=O)[C@H](CC(=O)O)NC(=O)[C@H](Cc3c[nH]c4ccccc34)NC(=O)[C@H](CCCNC(=N)N)NC(=O)[C@H](Cc3ccccc3)NC(=O)[C@H](Cc3cnc[nH]3)NC(=O)CNC1=O)C(=O)N[C@@H](Cc1cnc[nH]1)C(=O)N[C@@H](Cc1ccccc1)C(=O)N[C@@H](CCCNC(=N)N)C(=O)N[C@@H](Cc1c[nH]c3ccccc13)C(=O)N[C@@H](CCCNC(=N)N)C(=O)N2` (cyclo(CHFRWRC[Nle]GHFRWDR); linker 1-7 via pXylylene): the Ki in assay [1] is 0.245 nM; in assay [2], 13.8 nM. The EC50 in assay [6] was 0.0891 nM; in assay [7], 0.331 nM.

A word on the Ki: it is the equilibrium dissociation constant of an inhibitor or competing ligand from its target. The low end stands for tighter binding, the high end for weaker binding.
